Reference: patent publication US11667607B1 (ZYLORION HEALTH INC., priority 2022, dated 2023)

Columns and labels:
[1] = Exposure of solids to 2 days at 40° C./75% RH (AAC), remeasured by XRPD; assay type: physicochemical; details: Table 1, lyophilization/recrystallization; ambient-dried solid after 2 days 40° C./75% RH; crystalline; pc = poor crystalline
[2] = Dynamic vapor sorption (DVS) moisture sorption isotherm, solid re-measured by HT-XRPD; assay type: physicochemical
Procedure: Moisture sorption isotherms were collected on a DVS Adventure system from Surface Measurement Systems (London, UK). Sample size was circa 10 mg of solid material. A full sorption and desorption isotherm was recorded by varying the relative humidity from 40-95-0-40% in steps of 10% at a constant temperature of 25° C. Weight equilibration per step was set at dm/dt of 0.002%/min. Afterwards the sample was measured by HT-XRPD.

## CCc1cc(/C(C)=N/OCc2ccc(C3CCCCC3)c(C(F)(F)F)c2)ccc1CN1CC(C(=O)O)C1.CCc1cc(/C(C)=N/OCc2ccc(C3CCCCC3)c(C(F)(F)F)c2)ccc1CN1CC(C(=O)O)C1.O=C(O)/C=C/C(=O)O [crystalline Form A]
[1]
  HT-XRPD AAC-Amb-dried (solid form after AAC): Form A
[2]; DVS, 25° C.
  mass uptake at 80% RH: 2.4%
[2]; DVS, 25° C., RH cycle 40-95-0-40%
  total mass difference between 0-95% RH: 3.6%
[2]; DVS, based on mass uptake at 80% RH
  hygroscopicity according to the EP hygroscopicity classification: moderately hygroscopic
[2]; after DVS cycle 40-95-0-40% RH, 25° C.
  physical stability after the sorption-desorption cycle (XRPD of solid recovered after DVS): physically stable
